Several values for one entry are separate records, joined by “and”; a condition that tells them apart may be missing. Equal entries are not always repeated. Where two headings read alike, the source gives them in different places.

Assay [1] deals with CH1 human ovarian carcinoma cell line. Put plainly: 96 h growth inhibition, sulforhodamine B assay, CH1. The format is cell-based. As to conditions: 96 h exposure, v = variable (mean). (In SRB staining, fixed cells bind dye roughly in proportion to their protein.)
In assay [2] the test system is SKOV3 human ovarian carcinoma cell line. Briefly: 96 h growth inhibition, sulforhodamine B assay, SKOV3. The format is cell-based. The settings on record: 96 h exposure, v = variable (mean).
Assay [3] deals with A2780cis^R human ovarian carcinoma cell line (cisplatin resistant). Briefly: 96 h growth inhibition, sulforhodamine B assay, A2780cisR. The format is cell-based. As to conditions: for IC50: 96 h exposure, growth inhibition, v = variable (mean); for RF resistance factor: IC50 resistant line/IC50 parent line: A2780cis^R / A2780.
Assay [4] has as its system CH1cis^R human ovarian carcinoma cell line (cisplatin resistant). Briefly: 96 h growth inhibition, sulforhodamine B assay, CH1cisR. The format is cell-based. The settings on record: for IC50: 96 h exposure, growth inhibition, v = variable (mean); for RF resistance factor: IC50 resistant line/IC50 parent line: CH1cis^R / CH1.
The subject of assay [5] is A2780 human ovarian carcinoma cell line. Briefly: 96 h growth inhibition, sulforhodamine B assay, A2780. It is filed as cell-based. The settings on record: 96 h exposure, v = variable (mean).
The subject of assay [6] is CH1dox^R human ovarian carcinoma cell line (doxorubicin resistant). Briefly: 96 h growth inhibition, sulforhodamine B assay, CH1doxR. It is filed as cell-based. The settings on record: for IC50: 96 h exposure, growth inhibition; for RF resistance factor: IC50 resistant line/IC50 parent line: CH1dox^R / CH1.
Assay [7] has as its system T. brucei (S427) bloodstream trypomastigotes. Put plainly: Trypanosoma brucei bloodstream trypomastigote culture. The format is cell-based.
Assay [8] relates to P falciparum (chloroquin resistant strain K1). Briefly: In vitro antimalarial activity, chloroquine resistant K1. As to conditions: for % Inhibition, MQ, K1 P. falciparum: duplicates.
Protocol: Plasmodium falciparum: P falciparum (chloroquin resistant strain K1) was cultured at 37° C. in a 5% suspension of infected so erythrocytes (group A Rh^+) in complete medium as described by E L Elueze, S L Croft and D C Warhurst, J Antimicrobial Chemotherapy, 1996, 37, 511-518. The in vitro antimalarial activity of compounds were likewise determined according to their protocol. Mefloquin was used as the positive control.”
For assay [9], the system named is T. cruzi (MHOM/BR/00/Y). Put plainly: Trypanosoma cruzi in mouse peritoneal macrophages. It is filed as cell-based. As to the method: Trypanosoma cruzi: […] Drug activity was determined from the % of infected macrophages in treated cultures. Nifurtimox was used as the positive control.

The IC50 is the point on the concentration scale where inhibition reaches its midpoint. For “4,4′-Vinylidenedipyridine bis[2,2′:6′,2″-terpyridine platinum II] tetrafluoroborate [Compound A14]”, the half-maximal inhibitory concentration (IC50) in assay [1] came out at 1.35 µM; in [2] it was 1.3 µM; in [3], 2.4 µM; in assay [4] it was 0.63 µM; in assay [5] it was 1.6 µM; in [6], 5.1 µM. Also, the “RF resistance factor: IC50 resistant line/IC50 parent line” value (“RF resistance factor” for short) is given as 1.5 in assay [3], 0.46 in assay [4] and 3.8 in assay [6].

Regarding “4,4′-Vinylidenedipyridine bis[4′-(4-bromophenyl)-2,2′:6′,2″-terpyridine platinum II]tetrafluoroborate [Compound Q14]”, the IC50 was 2 µM in assay [1]; 4.7 µM in [2]; 2.3 µM in [3]; 2.8 µM in [4]; 1.9 µM in assay [6]. Also, the results for the “RF resistance factor” value in [4] and in assay [6] were 1.4 and 0.9, respectively.

For the compound “4,4′-Vinylidenedipyridine bis[4′-chloro-2,2′:6′,2″-terpyridine platinum II]tetrafluoroborate [Compound I14]”, the IC50 in assay [1] was determined as 15 µM; in assay [2], 15 µM; in [3] it was 19 µM; in assay [4] it was 17 µM; in [6], 7.8 µM. In addition, the “RF resistance factor” value in assay [4] was 1.1; in assay [6], 0.5.

For “4-Picoline 4′-amino-2,2′:6′,2″-terpyridine platinum II tetrafluoroborate [X]”, the IC50 was 15.1 µM in assay [1]; 25 µM in [2]; 21 µM in assay [3]; 16.5 µM in assay [4]; 25 µM in assay [5]; 17 µM in assay [6]. For the same compound, the “RF resistance factor” value in assay [3] turned out to be 0.8; in assay [4], 1.1; in [6], 1.1. Further, the “% Inhibition, Trypanosoma brucei” value amounted to 0% in [7] (0.1 μM); 0% in assay [7] (0.3 μM); 100% in assay [7] (1 μM); 100% in [7] (3 μM); 100% in [7] (10 μM); 100% in [7] (30 μM).

As to `Brc1cc[n+]([Pt-2]23[n+]4ccccc4-c4cccc([n+]42)-c2cccc[n+]23)cc1.F[B-](F)(F)F.F[B-](F)(F)F` [Compound A1], the IC50 in assay [1] turned out to be 2.1 µM; in assay [2] it was 9.2 µM; in assay [3], 6.7 µM; in [4], 2.1 µM; in assay [5], 5.8 µM; in assay [6], 0.85 µM. The “RF resistance factor” value was determined as 1.16 in assay [3], 1.0 in assay [4] and 0.41 in [6]. Moreover, the “% Inhibition, Trypanosoma brucei” value in [7] (0.03 μM), in assay [7] (0.1 μM), in assay [7] (0.3 μM), in assay [7] (1 μM), in assay [7] (3 μM) and in assay [7] (10 μM) was 100% in each case. Further, the “% Inhibition, Trypanosoma brucei” value in assay [7] (30 μM) came to 100%.

In the case of `F[B-](F)(F)F.F[B-](F)(F)F.OCc1cc[n+]([Pt-2]23[n+]4ccccc4-c4cccc([n+]42)-c2cccc[n+]23)cc1` [Compound A9], the IC50 was 14 µM in [1]; 17 µM in [2]; 92 µM in [3]; 12.5 µM in assay [4]; 40 µM in [5]; 5 µM in assay [6]. In addition, the “RF resistance factor” value in [3] is 2.3; in assay [4], 0.9; in assay [6] it was 0.3. Moreover, the “% Inhibition, Trypanosoma brucei” value in assay [7] (0.1 μM) is given as 32.5%; in assay [7] (0.3 μM) it was 100%; in assay [7] (1 μM), 100%; in assay [7] (3 μM), 100%; in assay [7] (10 μM) it was 100%; in assay [7] (30 μM), 100%.

As for `Brc1ccc(-c2cc(-c3ccccn3)nc(-c3ccccn3)c2)cc1.F[B-](F)(F)F.F[B-](F)(F)F.N.[Pt+2]` [Compound Q12, Ammonio 4′-(4-bromophenyl)-2,2′:6′,2″-terpyridine platinum II tetrafluoroborate], the “% Inhibition, Trypanosoma brucei” value in assay [7] (0.1 μM), in [7] (0.3 μM), in [7] (1 μM), in [7] (3 μM), in assay [7] (10 μM) and in assay [7] (30 μM) was 100% in each case.

As for `OC(c1cc(C(F)(F)F)nc2c(C(F)(F)F)cccc12)C1CCCCN1` (centres unmarked) [MQ, Mefloquin, reference compound], the “% Inhibition, MQ, K1 P. falciparum” value in assay [8] (Concn. MQ 0.015625 μM) was 0%; in assay [8] (Concn. MQ 0.0626 μM), 77.5% and 56.9%; in assay [8] (Concn. MQ 0.5 μM) it was 96.4% and 95.3%; in [8] (Concn. MQ 1 μM), 94.9% and 91.6%; in assay [8] (Concn. MQ 2 μM) it was 96.3% and 94.7%; in assay [8] (Concn. MQ 025 μM) it was 98.0% and 97.2%. For the same compound, the “% Inhibition, MQ, K1 P. falciparum” value is 0.5% and 0% in [8] (Concn. MQ 003125 μM); 93.6% and 94.8% in assay [8] (Concn. MQ). The 50% inhibitory concentration (IC50) was 0.06 µM in assay [8] (read-out: IC50 (avg), K1 P. falciparum, average of duplicates); 0.05 µM and 0.06 µM in assay [8] (read-out: IC50, K1 P. falciparum, each duplicate (1),(2)).

As to `Cc1ccncc1.F[B-](F)(F)F.F[B-](F)(F)F.OCCNc1cc(-c2ccccn2)nc(-c2ccccn2)c1.[Pt+2]` [U, (4-Picoline)(4′-(N-2-Hydroxyethyl)amino-2,2′:6′,2″-Terpyridine) Platinum (II) Tetrafluoroborate], the “% Inhibition, Trypanosoma brucei” value in [7] (0.1 μM) turned out to be 0%; in assay [7] (0.3 μM) it was 0%; in [7] (1 μM), 0%; in assay [7] (3 μM), 68.4%; in [7] (10 μM), 100%; in [7] (30 μM), 100%. Moreover, the “% Inhibition, Trypanosoma cruzi” value is on record as 0% in assay [9] (1 μM), 0% in assay [9] (3 μM), 0% in assay [9] (10 μM) and 18.0% in assay [9] (30 μM).

On to `N.N.[Cl][Pt][Cl]` [cisplatin, cis[Pt(NH3)2Cl2], reference compound], for which the IC50 in [1] is 0.4 µM; in assay [2] it was 2.25 µM; in assay [3] it was 8.8 µM; in [4], 1.2 µM; in assay [5] it was 0.53 µM.

As for `CC1CS(=O)(=O)CCN1/N=C/c1ccc([N+](=O)[O-])o1` (centres unmarked) [nifurtimox, Nifurtimox, reference compound], in [9] (Trypanosoma cruzi, Peritoneal macrophage, read-out: ED50 against Trypanosoma cruzi), the EC50 amounted to 3 µM.

Consider “Ammonio 4′-chloro-2,2′:6′,2″-terpyridine platinum II tetrafluoroborate [Compound I12]”, for which the “% Inhibition, Trypanosoma brucei” value in [7] (0.1 μM) came out at 0%; in [7] (0.3 μM), 0%; in [7] (1 μM), 100%; in assay [7] (3 μM) it was 100%; in [7] (10 μM), 100%; in assay [7] (30 μM) it was 100%.
